In data set [1] the test system is Homo sapiens. Nature of the data set: Volume of distribution in healthy human plasma at 400 mg, po measured on day 1 post dose by liquid chromatography-tandem mass spectrometry. The data set is classed as ADME, organism-based. To be noted: in vivo.
Data set [2] in a line: Drug concentration in PBMCs of healthy human at 400 mg, po ad for 14 days measured after 5 hrs post last dose by liquid chromatography-tandem mass spectrometry. The data set is classed as ADME, organism-based, PBMC. Particulars: read-out: Drug uptake.
The subject of data set [3] is Homo sapiens. Nature of the data set: Volume of distribution in healthy human plasma at 400 mg, po qd for 14 days by liquid chromatography-tandem mass spectrometry. To be noted: in vivo, 336 h. The data set is classed as ADME, organism-based.
The test system of data set [4] is Homo sapiens. Nature of the data set: Reduction in ABCC1 mRNA expression in healthy human at 400 mg, po qd for 14 days by RT-PCR. The data set is classed as ADME, organism-based. Particulars: in vivo, 336 h.
The test system of data set [5] is Homo sapiens. Put plainly: Effect on P-gp activity in PBMCs isolated from healthy human receiving compound dose at 400 mg, po qd for 14 days by rhodamine -123 efflux assay. The data set is classed as ADME, organism-based. Particulars: in vivo, 336 h.
Data set [6] can be described thus: Half life in healthy human plasma at 400 mg, po measured on day 1 post dose by liquid chromatography-tandem mass spectrometry. The data set is classed as ADME, organism-based.
Data set [7] is described as follows: Tmax in healthy human plasma at 400 mg, po measured on day 1 post dose by liquid chromatography-tandem mass spectrometry. The data set is classed as ADME, organism-based.
In data set [8] the test system is Homo sapiens. Nature of the data set: Reduction in ABCB1 mRNA expression in healthy human at 400 mg, po qd for 14 days by RT-PCR. The data set is classed as ADME, organism-based. To be noted: in vivo, 336 h.
The test system of data set [9] is Homo sapiens. Put plainly: Reduction in ABCC2 mRNA expression in healthy human at 400 mg, po qd for 14 days by RT-PCR. The data set is classed as ADME, organism-based. To be noted: in vivo, 336 h.
The nature of data set [10]: Ratio of drug concentration in PBMCs to plasma of healthy human administered at 400 mg, po measured after 24 hrs on day 1 post dose. The data set is classed as ADME, organism-based, PBMC.
A short description of data set [11]: Drug concentration in PBMCs of healthy human at 400 mg, po measured after 24 hrs on day 1 post dose by liquid chromatography-tandem mass spectrometry. The data set is classed as ADME, organism-based, PBMC. Particulars: read-out: Drug uptake.
A short description of data set [12]: Tmax in healthy human plasma at 400 mg, po qd for 14 days by liquid chromatography-tandem mass spectrometry. The data set is classed as ADME, organism-based.
The nature of data set [13]: Ratio of drug concentration in PBMCs to plasma of healthy human administered at 400 mg, po qd for 14 days measured after 5 hrs post last dose. The data set is classed as ADME, organism-based, PBMC.
The nature of data set [14]: Drug concentration in PBMCs of healthy human at 400 mg, po ad for 14 days measured after 24 hrs post last dose by liquid chromatography-tandem mass spectrometry. The data set is classed as ADME, organism-based, PBMC. To be noted: read-out: Drug uptake.
Data set [15] is described as follows: Apparent oral clearance in healthy human plasma at 400 mg, po qd for 14 days by liquid chromatography-tandem mass spectrometry. The data set is classed as ADME, organism-based.
Data set [16] can be described thus: Apparent oral clearance in healthy human plasma at 400 mg, po measured on day 1 post dose by liquid chromatography-tandem mass spectrometry. The data set is classed as ADME, organism-based.
The nature of data set [17]: Ratio of drug concentration in PBMCs to plasma of healthy human administered at 400 mg, po qd for 14 days measured after 24 hrs post last dose. The data set is classed as ADME, organism-based, PBMC.
Data set [18] concerns Plasma. Nature of the data set: Fraction unbound in healthy human plasma at 400 mg, po measured on day 1 post dose by liquid chromatography-tandem mass spectrometry. The data set is classed as ADME, organism-based. Particulars: in vivo.
Data set [19] deals with Plasma. Put plainly: Fraction unbound in healthy human plasma at 400 mg, po qd for 14 days by liquid chromatography-tandem mass spectrometry. The data set is classed as ADME, organism-based. To be noted: in vivo, 336 h.
A short description of data set [20]: Cmax in healthy human plasma at 400 mg, po qd for 14 days by liquid chromatography-tandem mass spectrometry. The data set is classed as ADME, organism-based. Also noted: dose 400 mg, route oral.
Data set [21] in a line: Half life in healthy human plasma at 400 mg, po qd for 14 days by liquid chromatography-tandem mass spectrometry. The data set is classed as ADME, organism-based.
Data set [22] can be described thus: Drug concentration in PBMCs of healthy human at 400 mg, po measured after 5 hrs on day 1 post dose by liquid chromatography-tandem mass spectrometry. The data set is classed as ADME, organism-based, PBMC. Particulars: read-out: Drug uptake.
The nature of data set [23]: Ratio of drug concentration in PBMCs to plasma of healthy human administered at 400 mg, po measured after 5 hrs on day 1 post dose. The data set is classed as ADME, organism-based, PBMC.
Data set [24] can be described thus: Cmax in healthy human plasma at 400 mg, po measured on day 1 post dose by liquid chromatography-tandem mass spectrometry. The data set is classed as ADME, organism-based. Also noted: dose 400 mg, route oral.

One may read the half-life as the time needed for the level to fall by half in the phase considered. Low readings indicate fast loss, high ones slow loss. What is called Tmax is the time at which the peak concentration occurs. In general, Kp refers to the ratio of the level in a tissue or fluid to that in plasma or blood. By CL/F is commonly meant the apparent clearance, not corrected for the fraction that reaches the circulation. Usually Cmax stands for the maximum level reached in the sampled fluid or tissue. As for `O=C1Nc2ccc(Cl)cc2[C@@](C#CC2CC2)(C(F)(F)F)O1` [EFAVIRENZ], the Vd was determined as 462.8 L in data set [1] and 401.6 L in data set [3]. In addition, the concentration at 5 h is 3600 ng/mL in data set [2] and 1470 ng/mL in data set [22]. Moreover, the Activity entry in [4], in data set [5], in data set [8] and in data set [9] was “Non-toxic” throughout. The half-life is 78.7 h in data set [6] and 33 h in data set [21]. The Tmax came out at 2.3 h in data set [7] and 2.2 h in data set [12]. The figures for the Kp at 24 h in [10] and in data set [17] were 1.53 and 1.36, respectively. Further, the results for the concentration at 24 h in [11] and in data set [14] were 974 ng/mL and 2030 ng/mL, respectively. The Kp at 5 h in data set [13] was 1.76; in [23], 1.63. Also, the results for the CL/F in data set [15] and in data set [16] were 148 mL/min and 70.7 mL/min, respectively. Besides, the Fu is 0.47% in [18] and 0.52% in data set [19]. For the same compound, the peak concentration (Cmax) in data set [20] amounted to 3760 ng/mL; in data set [24], 2740 ng/mL.

Values taken from ChEMBL document CHEMBL1671732, “No evidence for induction of ABC transporters in peripheral blood mononuclear cells in humans after 14 days of efavirenz treatment” (Antimicrob Agents Chemother, 2010).
